Patent publication US20030144194A1, “Cancer treatment and prognosis” (priority 2000, published 2003)

Assays:
[1] = system: HES-1; assay: Western blot of HES-1 protein in nuclear extracts of breast cancer cell lines; format: cell-based; details: for effect on 17β-estradiol-mediated down regulation of HES-1 protein: antiestrogen together with 17β-estradiol, FIG. 1C
Description: FIG. 1(B) Regulation of HES-1 by 17β-estradiol in breast cancer cell lines; 50 μg of nuclear extract protein was used;
(§1) T47D cells were cultured in a 1:1 mixture of Hams F 12 and DME with 10% fetal bovine serum, MCF-7, MDA-MB-231 and COS-7 cells were cultured in DME with 10% fetal bovine serum. Before experiments with estrogen, the media were switched and phenol red free and DCC charcoal treated with serum were used. Culture conditions were set at 37° C., 5% CO2 and 100% humidity. For creation of tetracycline inducible stably transfected clones the tet-regulated expression system from Bibco BRL was used. A puromycin resistance gene was cloned into pTet TAk. T47D cells were then transfected with lipofectin (GibcoBRL) according to the manufacturer's instructions. Transfectants were selected with puromycin at 1 μg/ml. […] Transfectants were selected using G418 (Calbiochem) at 500 μg/ml. Cells lines stably transfected with tetracycline regulated expression constructs were grown in the presence of 1 μg/ml of tetracycline. At the time of induction the medium was removed and the cells were washed with PBS two times before adding new medium without tetracycline.
Nuclear extract and RNA preparation was carried out according to the protocol by Schreiber et al (E. Schreiber, et al., Nucleic Acids Res 17, 6419 (1989)) except that PBS was used instead of TBS and the following inhibitors were added: leupeptin at 1 μg/ml, PMSF at 0.2 mM, […] Na3VO4, 1 mM NaPPi, 1 mM NaF, 100 μM Na2MO4 (all from Sigma). Nuclear extracts were prepared from cells grown to a confluency of 60%-70% on a 150 mm culture dish. Protein content was determined by Bradford assay (BioRad).
(§2) Two peptides with identical sequence parts of HES-1 protein were synthesised and simultaneously injected into one rabbit (Genosys). The peptides were […] […] and […]. For Western blots, 100 μg of nuclear extract was separated on a 12% SDS-PAGE. Western blot analysis was performed according to standard protocols (Harlow and Lane, E. Harlow, and D. Lane, Cold Spring Harbour Laboratory Press, Cold Spring Harbour, N.Y., (1988)). HES-1 antibody was used at a dilution of 1:1000. The PCNA (C-10) antibody was from Santa Cruz and used at 1:1000. Donkey, anti-rabbit and sheep anti-mouse IgG HRP conjugated antibody (Amersham) were used at 1:10000. Antibody binding was visualised using ECL, Super Signal (Pierce).

[2] = system: T47D breast cancer cells; assay: Proliferation assay, T47D cells stably transfected with tetracycline regulated FLAG HES-1 expression; format: cell-based
Description: (§3) FIG. 2 illustrates a proliferation assay T47D cells stably transfected with tetracycline regulated FLAG HES-1 expression. (A) Relative proliferation of two different clones HES-1(1) and HES-1(2) with inducible FLAG HES-1 expression, and two control clones. Tetracycline at 1 μg/ml and 17β-estradiol at 10 nM were used when stated. Data represents an average of six independent measurements. (B) Western blot of endogenous HES-1 and FLAG HES-1 expression in HES-1(1) and HES-1(2) cell lines with antibody against HES-1. PCNA Western blot on same extracts 50 μg of nuclear protein was used;
as §1
A proliferation determination kit from BioThema (A. Lundin, Methods Enzymol 305, 346-370 (1999)). The kit is based on measuring ATP and since the ATP level is constant between cells this can be used to evaluate the number of cells. The cells were grown on 24 well plates at 1000 cells/well. Treatment with hormone was in phenol red-free medium supplemented with 10% DCC treated fetal calf serum. […] Luciferase activity was measured using a Berthold luminometer.

[3] = system: proliferating cell nuclear antigen (PCNA); assay: PCNA Western blot on nuclear extracts of tet-regulated FLAG HES-1 T47D cells; format: cell-based
Description: as §3, §2

[4] = system: histone acetylation; details: MCF-7 breast cancer cells, Pasqualini et al (1989); cited from earlier work
[5] = system: HES-1; assay: All-trans retinoic acid effect on 17β-estradiol-dependent down regulation of HES-1 expression in MCF-7 cells (Western blot); format: cell-based; details: 1 μM all-trans retinoic acid, 17β estradiol 0.1 and 1 nM, 3 days
Description: MCF-7 cells were grown on 150 mm plates to 70% confluency in DME medium supplemented with 10% FBS. The medium was then changed to phenolAred free DME supplemented with DCC treated FBS to which 17β estradiol 0.1 and 1 nM respectively and 1 μM of all-trans retinoic acid was added individually or in combination. The plates were then incubated for 3 days in a humidified incubator at 37° C. and 5% CO2. Nuclear extract was produced according to Schreiber et al (E. Schreiber et al (1989) Nucleic Acids Res 17: 6419). 50 μg of this nuclear extract was then run on SDS-PAGE and blotted over to nitrocellulose membrane Hybond C super (Amersham). HES-1 protein was then detected using HES-1 antibody.

[6] = system: CMV promoter; details: L. D. Dion et al., Virology 231 (1997); cited from earlier work
[7] = target: T1, estrogen receptor α (ERα) (Homo sapiens, UniProt P03372); assay: ERE TATA LUC reporter in COS-7 cells transfected with ERα; format: cell-based
T1 construct: FLAG; expressed in transfected cells; host or cells: COS-7
T1 sequence (P03372 1-595): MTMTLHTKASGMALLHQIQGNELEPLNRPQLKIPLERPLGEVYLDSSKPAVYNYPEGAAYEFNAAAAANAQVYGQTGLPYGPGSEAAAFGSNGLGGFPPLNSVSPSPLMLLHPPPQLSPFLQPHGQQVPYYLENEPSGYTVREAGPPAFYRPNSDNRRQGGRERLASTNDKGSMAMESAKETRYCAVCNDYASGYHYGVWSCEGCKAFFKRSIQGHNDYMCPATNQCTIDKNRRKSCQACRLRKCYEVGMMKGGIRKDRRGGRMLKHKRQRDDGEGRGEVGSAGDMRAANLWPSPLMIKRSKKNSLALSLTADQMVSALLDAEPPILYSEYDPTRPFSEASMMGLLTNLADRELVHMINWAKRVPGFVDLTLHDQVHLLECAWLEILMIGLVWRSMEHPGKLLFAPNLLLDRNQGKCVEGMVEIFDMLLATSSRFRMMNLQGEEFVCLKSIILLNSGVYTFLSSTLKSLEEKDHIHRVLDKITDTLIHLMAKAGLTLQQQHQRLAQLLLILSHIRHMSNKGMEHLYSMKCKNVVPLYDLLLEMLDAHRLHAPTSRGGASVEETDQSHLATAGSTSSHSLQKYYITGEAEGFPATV
Description: FIG. 5. Transfection of COS-7 cells with 3X ERE TATA LUC 1 μg and 100 ng of pcDNA3 FLAG ERα.
FIG. 8. Transient transfection of COS-7 cells using the ERE reporter vector ERE TATA LUC and expression vectors FLAG ERα and FLAG HES-1 and treated with E2 and the histone deacetylase inhibitor Trichostatin A (TSA).
Human ERα was epitope tagged with the artificial “FLAG” epitope using PCR cloning. The VP16 activation domain was fused to the N-tenninus of rat HES-1.

[8] = target: T2, ERβ (Homo sapiens, UniProt Q92731); assay: ERE TATA LUC reporter in COS-7 cells transfected with ERβ; format: cell-based; details: FIG. 9
T2 construct: FLAG; expressed in transfected cells; host or cells: COS-7
T2 sequence (Q92731 whole entry, species assumed): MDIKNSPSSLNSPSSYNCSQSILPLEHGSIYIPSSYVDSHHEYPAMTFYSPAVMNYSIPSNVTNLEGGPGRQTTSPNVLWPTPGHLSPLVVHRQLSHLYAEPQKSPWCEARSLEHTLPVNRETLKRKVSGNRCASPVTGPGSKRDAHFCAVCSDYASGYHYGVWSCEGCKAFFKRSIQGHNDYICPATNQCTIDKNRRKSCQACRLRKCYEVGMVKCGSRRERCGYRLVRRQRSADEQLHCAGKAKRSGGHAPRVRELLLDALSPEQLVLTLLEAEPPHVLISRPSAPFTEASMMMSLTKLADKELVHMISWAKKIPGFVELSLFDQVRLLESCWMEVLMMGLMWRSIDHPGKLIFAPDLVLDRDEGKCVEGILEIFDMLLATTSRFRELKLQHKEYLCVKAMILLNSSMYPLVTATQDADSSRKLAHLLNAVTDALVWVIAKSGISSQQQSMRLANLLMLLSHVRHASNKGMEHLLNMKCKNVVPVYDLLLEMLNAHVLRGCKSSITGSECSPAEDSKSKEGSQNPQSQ
From the text: FIG. 9. Transient transfection of COS-7 cells using the ERE reporter vector ERE TATA LUC and expression vectors FLAG […] and FLAG HES-1 and treated with E2 and the histone deacetylase inhibitor Tricostatin A (TSA).

## CC/C(=C(\c1ccc(O)cc1)c1ccc(OCCN(C)C)cc1)c1ccccc1 [4OH tamoxifen]
[1]
  effect on 17β-estradiol-mediated down regulation of HES-1 protein: prevented

## C[C@]12CC[C@@H]3c4ccc(O)cc4CC[C@H]3[C@@H]1CC[C@@H]2O [17β-estradiol]
[1]; MCF-7 breast cancer cells
  expressed protein levels of HES-1: suppress
[1]; MDA-MB-231 breast cancer cells (lack ERα)
  17β-estradiol-mediated suppression of HES-1: lack of 17β-estradiol-mediated suppression
[1]; T47D breast cancer cells
  expressed protein levels of HES-1: suppress
[2]; absence of tetracycline (with induced HES-1 expression), 17β-estradiol 10 nM
  stimulation of proliferation: no 17β-estradiol stimulated proliferation
[2]; presence of tetracycline (without induced HES-1 expression), 17β-estradiol 10 nM
  stimulation of proliferation: two-fold stimulation
[2]; two control cell lines with tetracycline-regulated vector lacking FLAG-HES-1
  stimulation of proliferation: exhibited 17β-estradiol-stimulated proliferation
[3]; absence of exogenous FLAG-HES-1 expression
  regulation of proliferation marker PCNA: upregulated twofold
[3]; presence of exogenous FLAG-HES-1
  regulation of proliferation marker PCNA: no regulation
[4]
  histone acetylation: decreases

## C[C@]12CC[C@@H]3c4ccc(O)cc4C[C@@H](CCCCCCCCC[S+]([O-])CCCC(F)(F)C(F)(F)F)[C@H]3[C@@H]1CC[C@@H]2O (stereo partly drawn) [ICI 182,780]
[1]
  effect on 17β-estradiol-mediated down regulation of HES-1 protein: prevented

## CC1=C(/C=C/C(C)=C/C=C/C(C)=C/C(=O)O)C(C)(C)CCC1 [all-trans retinoic acid]
[5]
  effect on 17β-estradiol-dependent down regulation of HES-1 expression: inhibits

## CCCC(=O)O.COc1cccc(C#CCON=C2CN3CCC2C3)c1 (stereo not drawn) [n-butyrate]
[6]
  CMV promoter activity: induce

## O=C(c1ccc(OCN2CCCCC2)cc1)c1c(-c2ccc(O)cc2)sc2cc(O)ccc12 [raloxifen]
[1]
  effect on 17β-estradiol-mediated down regulation of HES-1 protein: prevented

## CC(/C=C/C(=O)NO)=C\[C@@H](C)C(=O)c1ccc(N(C)C)cc1 [trichostatin A]
[7]; COS-7 cells treated with 5 ng/ml trichostatin A for 8 hrs
  makes 4OH tamoxifen into an effective agonist on ERE TATA LUC: same result
[7]; COS-7 cells, ERα, FIG. 8
  17β-estradiol response on addition of TSA together with HES-1: much larger response
[8]
  17β-estradiol response on addition of TSA in combination with HES-1: no significant difference
[6]
  CMV promoter activity: induce
